Article PMC9863764, “Roles of Human Liver Cytochrome P450 Enzymes in Tenatoprazole Metabolism” (Pharmaceutics, 2022)
“And” between values parts separate entries of the source, which are not always exact repeats. Equal entries are not always repeated.

Tests used:
Assay type in all cases: in vitro ADME
[1] = system: human liver microsomes (HLMs); test: Time course of oxidation of tenatoprazole and tenatoprazole sulfide by human liver microsomes (HPLC); settings: human, 12 h, 500 μM, pH 7.4
Method: A racemate of tenatoprazole was used in this work because the chiral tenatoprazoles currently are not commercially available. The reactions using HLMs contained incubation at 37 °C in 0.25 mL mixtures containing P450 (0.5 mg protein/mL) in 100 mM potassium phosphate buffer (pH 7.4), an NADPH-generating system (NGS, final concentration of 10 mM glucose-6-phosphate, 0.50 mM NADP^+, 1.0 IU yeast glucose-6-phosphate dehydrogenase per mL), and 0.1 mM of tenatoprazole or tenatoprazole sulfide. Incubations generally were performed for 2 h in the presence or absence of the NGS. Tenatoprazole and its metabolites were extracted twice using cold ethyl acetate as an organic solvent. Then centrifugation (1000× g, 20 min) was done to separate the organic layer from the aqueous layer. Omeprazole was added to this solution as an internal standard (IS) at a final 20 μM concentration. The organic layer was concentrated under nitrogen gas stream. The dried residues were then dissolved in the mobile phase (180 μL) and 30 μL was injected onto the column.
High-performance liquid chromatography (HPLC) was performed on the basis of a previously developed method for tenatoprazole and its metabolites, as described elsewhere. The analytical column was a Gemini C18 column (4.6 × 150 mm, 5 μm; Phenomenex), and the HPLC mobile phase consisted of acetonitrile and 5 mM potassium phosphate buffer (pH 7.3) (25:75, v/v). The substrate and its metabolites were detected at A302. The HPLC profile of the authentic compounds (i.e., tenatoprazole and its metabolites) were measured to compare to identify the major metabolites of tenatoprazole and tenatoprazole sulfide produced by HLMs.
The time course of the oxidation of tenatoprazole and tenatoprazole sulfide by HLMs (0.5 mg protein/mL) was analyzed to the estimated yield of metabolites and percentage of each metabolite using 0.60 mM substrate in 0.25 mL of 0.10 M potassium phosphate buffer (pH 7.4). After NGS was added to initiate the reaction, the samples were incubated for the designated time (i.e., 2, 5, 10, and 30 min, and 1, 2, 4, 8, 12, and 24 h) at 37 °C. Product formation was quantified using HPLC analysis, as mentioned above.
Calibration standard curves of tenatoprazole were made using a blank control sample (a reaction mixture without substrate and IS) and 12 samples containing tenatoprazole and omeprazole (IS) covering the concentration ranges of 1–500 μM, as described previously. The peak area ratio of tenatoprazole to IS was linear with respect to the analyte concentration over the range of 1–500 μM. The metabolites were quantified by comparing the peak areas of each metabolite to the mean peak areas of the IS (20 μM omeprazole).

human CYP3A4 [2] = molecular target: T1, human CYP3A4 (Homo sapiens, UniProt P08684); test: Sulfoxidation of tenatoprazole sulfide by recombinant CYP3A4 (chiral chromatography)
T1 construct: made in house; host or cells: Escherichia coli (membrane fractions)
Method: The sulfoxidation reaction of tenatoprazole sulfide by CYP3A4 was measured by chiral chromatography. […] The reaction was initiated by adding NGS at 37 °C. […] After the residues were solubilized in 180 μL mobile phase, 30 μL samples were injected onto a Chiralpak AD column (4.6 × 150 mm, 10 μm; Daicel Corporation, Osaka, Japan) with a hexane-ethanol mixture (30:70, v/v) as the mobile phase. The products formed were analyzed by HPLC at […]. […] The kinetic parameters (kcat and Km) were determined by using a Michaelis-Menten nonlinear regression analysis with GraphPad Prism (GraphPad Software, San Diego, CA, USA).

human CYP3A4 [3] = molecular target: T1, human CYP3A4; test: Steady-state kinetics of tenatoprazole oxidation by recombinant CYP3A4; settings: 30 min incubation, LC-QTOF-MS
Method: Pooled liver microsomes from human samples were obtained from ThermoFisher Scientific (Waltham, MA, USA). […] Membrane fractions expressing both P450 and CPR of E. coli were prepared as described previously and were used for the catalytic activity assays. […] The reaction was started by adding NGS and the incubation was continued for the indicated time at 37 °C. Incubation was then stopped by adding ice-chilled ethyl acetate (0.50 mL) and omeprazole (IS) was added to a final concentration of 20 μM. […] Phenomenex, Torrance, CA, USA). The products formed were analyzed by HPLC at […]. The HPLC profile of the authentic chemicals (i.e., tenatoprazole, tenatoprazole sulfide, and their metabolites) were used to identify the major metabolites of tenatoprazole and tenatoprazole sulfide produced by the recombinant P450s. […] The kinetic parameters (kcat and Km) were determined by using a Michaelis-Menten nonlinear regression analysis with GraphPad Prism (GraphPad Software, San Diego, CA, USA). To further characterize the nature of the metabolites, the reaction mixtures were additionally analyzed by a 6530 Quadrupole Time-of-Flight (QTOF) mass spectrometer (MS) (Agilent, Santa Clara, CA, USA) coupled with a 1290 Infinity ultra-performance liquid chromatography (UPLC) system (Agilent). […] The reaction was initiated by adding NGS at 37 °C. […] Then, the upper layer was transferred to a glass tube and dried under nitrogen stream. The residues were reconstituted in 0.30 mL acetonitrile, then 1 μL samples were injected into an LC-MS system. The analytical column was a Hypersil Gold C18 column (100 × 2.1 mm, 1.9 μm; ThermoFisher Scientific). […] A gradient program was used for HPLC separation, and the flow rate was 0.4 mL/min. […] The column and autosampler were kept at 35 °C and 4 °C, respectively, during analysis. Electrospray ionization was performed in the positive ion mode. The sheath gas flow rate was 8 L/min. The flow rate of drying gas was 12 L/min at 350 °C, and the nebulizer's temperature was set at 350 °C. The capillary voltage was 4500 V in the positive mode, and that of the fragmentor was 175 V. Data acquisition were done over a scan range from 50 m/z to 1000 m/z in the centroid mode. A reference compound (C18H18O6N3P3F24; [M+H]^+ = 922.0098) was used to correct all of the masses. Tandem mass spectrometry (MS/MS) data were acquired in profile mode via autoanalysis for structural characterization with 30 eV of the collision energy.

T1 sequence (P08684 whole entry): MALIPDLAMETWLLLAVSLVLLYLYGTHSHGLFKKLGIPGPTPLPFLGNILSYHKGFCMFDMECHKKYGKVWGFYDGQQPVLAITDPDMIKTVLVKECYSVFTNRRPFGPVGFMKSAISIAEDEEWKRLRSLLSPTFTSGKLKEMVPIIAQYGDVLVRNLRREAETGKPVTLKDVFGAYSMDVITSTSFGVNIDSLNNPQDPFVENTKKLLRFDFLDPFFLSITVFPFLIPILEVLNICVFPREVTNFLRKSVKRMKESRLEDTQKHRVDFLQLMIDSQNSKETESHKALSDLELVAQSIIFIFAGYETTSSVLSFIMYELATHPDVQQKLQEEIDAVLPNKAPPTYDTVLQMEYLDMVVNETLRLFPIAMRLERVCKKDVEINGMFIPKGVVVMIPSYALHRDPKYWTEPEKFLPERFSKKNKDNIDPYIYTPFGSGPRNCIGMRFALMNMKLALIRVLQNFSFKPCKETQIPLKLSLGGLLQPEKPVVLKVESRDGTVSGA

COc1ccc2[nH]c(SCc3ncc(C)c(OC)c3C)nc2n1 [tenatoprazole sulfide, Tenatoprazole sulfide]
conversion yield to tenatoprazole sulfide [1]: 94.8%
tenatoprazole sulfide remained ([1]; microsomes): More than 99%
sulfoxidation activity to produce tenatoprazole (human CYP3A4 [2]; recombinant CYP3A4, substrate tenatoprazole sulfide): showed the sulfoxidation activity

COc1ccc2[nH]c(SCc3c(C)c(OC)c(CO)c[n+]3[O-])nc2n1 [1′-N-oxy-5′-OH tenatoprazole sulfide, 1′-N-oxy-5′-hydroxytenatoprazole sulfide]
amount of metabolite observed in CYP3A4-catalyzed reaction (human CYP3A4 [3]): only trace amounts

COc1ccc2[nH]c([S@+]([O-])Cc3ncc(C)c(OC)c3C)nc2n1 [R-tenatoprazole]
fold higher catalytic efficiency of R-tenatoprazole formation than S-tenatoprazole formation (human CYP3A4 [2]; substrate tenatoprazole sulfide, CYP3A4): 1.7 fold
kcat of product formation (human CYP3A4 [2]; substrate tenatoprazole sulfide, recombinant CYP3A4, chiral chromatography, label = product formed): 4.0 min⁻¹ and 4.0 ± 0.3 min⁻¹
